Values of other authors, collected in US20100120723A1, “PHARMACEUTICAL COMPOSITION COMPRISING A HOT-MELT GRANULATED LUBRICANT” (priority 2006, published 2010).

Tested on: bone resorption
Conditions: animal models of bone resorption

## CCCCCN(C)CCC(O)(P(=O)(O)O)P(=O)(O)O [Sodium ibandronate]
  potency relative to alendronate, risedronate, pamidronate and clodronate: many times more potent
